Reference: patent US5494927A, “3,5-di-tertiarybutyl-4-hydroxyphenylmethylene derivatives of 2-substituted thiazolidinones, oxazolidinones, and imidazolidinones as antiinflammatory agents” (priority 1994, dated 1996)
Values joined by “and” are separate entries in the source; they are usually repeats but may differ in a detail not shown here. Identical values can stand only once. Counter-ions that a name gives are not always drawn.

What was measured:
5-lipoxygenase = target: T1, 5-lipoxygenase (Rattus norvegicus, UniProt P12527); test: ARBL whole cell 5-lipoxygenase assay (LTB4 formation in RBL-1 cells); type: cell-based; settings: for IC50: A23187 stimulated, read-out: ARBL IC50 for LTB4 inhibition; for inhibition at 10 µM: read-out: ARBL % inhibition of LT
T1 construct: host or cells: RBL-1 rat basophilic leukemia cells
T1 sequence (P12527 1-673): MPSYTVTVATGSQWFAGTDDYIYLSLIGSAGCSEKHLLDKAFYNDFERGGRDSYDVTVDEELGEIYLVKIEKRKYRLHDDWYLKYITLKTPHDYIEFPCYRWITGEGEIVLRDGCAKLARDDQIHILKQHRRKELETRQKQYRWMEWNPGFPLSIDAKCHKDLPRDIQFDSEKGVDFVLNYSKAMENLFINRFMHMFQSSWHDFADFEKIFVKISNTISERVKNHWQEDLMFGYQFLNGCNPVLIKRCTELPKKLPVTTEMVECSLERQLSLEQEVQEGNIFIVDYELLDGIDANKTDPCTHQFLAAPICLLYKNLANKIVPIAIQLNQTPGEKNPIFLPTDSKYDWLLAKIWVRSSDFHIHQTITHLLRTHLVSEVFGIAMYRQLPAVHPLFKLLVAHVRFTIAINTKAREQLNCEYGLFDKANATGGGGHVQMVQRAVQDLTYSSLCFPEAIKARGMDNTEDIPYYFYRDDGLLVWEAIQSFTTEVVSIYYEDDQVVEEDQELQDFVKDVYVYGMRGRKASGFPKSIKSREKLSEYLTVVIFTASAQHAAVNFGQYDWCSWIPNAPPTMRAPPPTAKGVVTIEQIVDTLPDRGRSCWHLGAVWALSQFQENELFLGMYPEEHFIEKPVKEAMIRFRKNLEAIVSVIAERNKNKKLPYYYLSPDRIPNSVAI
Procedure: (§1) ARBL/ARBC WHOLE CELL 5-LIPOXYGENASE AND CYCLOOXYGENASE ASSAYS
(§2) The rat basophilic leukemia cell line (RBL-1) was obtained from the American Type Culture Collection (Rockville, Md.).
(§3) Radioimmunoassay (RIA) kits of LTB4 and PGF2.sbsb.α were obtained from Amersham (Arlington Heights, Ill.) and Seragen (Boston, Me.), respectively.
(§4) All tissue culture media were obtained from GIBCO (Grand Island, N.Y.).
(§5) RBL-1 cells are grown in suspension culture in Eagle's minimum essential medium supplemented with 12% fetal bovine serum at 37° C. in an incubator supplied with air-5% carbon dioxide. Cells are harvested by centrifugation. They are washed with cold phosphate buffered saline pH 7.4 (PBS; NaCl, 7.1 g; Na2 HPO4, 1.15 g; KH2 PO4, 0.2 g; and KCl, 0.2 g/L). Cells are finally suspended in PBS containing 1.0 mM calcium at a density of 2×10^6 cells/mL. Cells are incubated with and without test agent (in DMSO) (1% DMSO is without effect on arachidonic acid metabolism) for 10 minutes at room temperature. Calcium ionophore A23187 (5 μM) is added and cells are incubated for 7 minutes at 37° C. The reaction is stopped by chilling the tubes on ice for 10 minutes. Cells are separated by centrifugation and the supernatant is stored at -20°. Aliquots (100 μL) are analyzed for LTB4 and PGF2.sbsb.α using radioimmunoassay kits as provided by the supplier.
(§6) Table I contains biochemical data obtained from this whole cell assay as IC50 s which are calculated as the amount of test compound causing 50% inhibition or % of inhibition at the named micromoles (μM) of LTB4 or PGF2.sbsb.α formation.

cyclooxygenase = test: ARBC whole cell cyclooxygenase assay (PGF2α formation in RBL-1 cells); type: cell-based, rat; settings: for IC50: A23187 stimulated; for ARBC % inhibition of PGF2α: @ 10 μM
Procedure: as §1, §2, §3, §4, §5, §6

[1] = system: carrageenan-induced rat foot paw edema; test: Carrageenan-induced rat foot paw edema-2 (CFE-2) assay; type: in vivo; settings: dosed 1 hour before carrageenan, edema at 5 hours
Procedure: Carrageenan-Induced Rat Foot Paw Edema-2
CARRAGEENAN-INDUCED RAT FOOT PAW EDEMA-2 (CFE-2) ASSAY: PROTOCOL
Carageenan solution (1% w/v) is prepared by dissolving 100 mg carrageenan (Marine Colloidal Div., Springfield, N.J.) in 10 mL of sterile saline (0.9%) solution (Travenol). The solution is vortexed for 30 to 45 minutes. Animals are dosed with compound 1 hour before carrageenan challenge. Foot paw edema is induced by injecting 0.10 mL of the 1% carrageenan subcutaneously into the plantar portion of the right hind paw of each rat under light anesthesia. Initial foot paw volume is measured immediately following carrageenan challenge using mercury plethysmography (Buxco Electronics). Edema is measured 5 hours after carrageenan. The difference between the 5-hour and the initial paw volume is expressed as delta edema. The delta edema for each test group of animals is used to calculate the percent inhibition of edema achieved by the compound at the test dose compared with the vehicle control group. The data in Table I (the dose at which swelling is inhibited by the noted percent) is calculated by probit analysis for the dose at which percent inhibition occurs.

[2] = system: Mycobacterium-induced rat footpad edema; test: Mycobacterium-induced rat footpad edema assay (MFE); type: in vivo; settings: for ED40: Rattus norvegicus, swelling 72 hours after Mycobacterium injection, read-out: MFE ID40 (dose at which swelling is inhibited by 40%); for MFE % inhibition of swelling: 72 hours
Procedure: MYCOBACTERIUM-INDUCED RAT FOOTPAD EDEMA ASSAY (MFE): PROTOCOL
Mycobacterium butyricum (5 mg/mL) is suspended in paraffin oil by sonication for 10 minutes in an ice bath. Footpad edema is induced on Day 0 by injecting 0.1 mL of the Mycobacterium mixture into the left hindpaw of lightly anesthetized rats. Swelling in the injected hindpaw is determined by mercury plethysmography 72 hours after injection. Groups of rats are treated with test compounds (suspended in 0.5% hydroxypropyl methylcellulose with 0.2% Tween-80) or vehicle 1 hour before Mycobacterium injection and on Days 1 and 2. Inhibition of swelling is determined by comparing the change in hindpaw volume in compound- and vehicle-treated rats. An ID40 (the dose at which swelling is inhibited by 40%) is calculated by probit analysis or shown as the % inhibition at the dose expressed as μM, i.e., % at μM.

gastric ulcers in rats = test: Gastric ulcerogenicity (UD); type: in vivo, Wistar rats; parameters: key: N is not active at the dose tested; settings: @ 200; oral, fasted rats, 6 hours
Procedure: GASTRIC ULCEROGENICITY (UD): PROTOCOL
Male outbred Wistar rats (100-250 g) are fasted for 24 hours. After fasting, test compounds are administered orally (in 2 mL/kg of 0.5% hydroxypropyl methylcellulose) and the rats are denied access to food and water for 6 more hours. The rats are then sacrificed with CO2 so that the stomachs can be removed, opened along the greater curvature, and evaluated for the presence of gastric ulcers. Results are expressed as the percent of rats with gastric ulcers at a given dose or as the UD50 (the dose which causes ulcers in 50% of the rats).

Molecule | IC50 (5-lipoxygenase) | IC50 (cyclooxygenase) | CFE % inhibition of edema ([1]; @ 10) | inhibition at 10 µM (5-lipoxygenase) | ARBC % inhibition of PGF2α (cyclooxygenase) | CFE % inhibition of edema ([1]; @ 30) | other results
CON(C)C1=NC(=O)/C(=C/c2cc(C(C)(C)C)c(O)c(C(C)(C)C)c2)S1 | 1700 nM | 330 nM | 41% |  |  |  | ED40 [2]: 13.2 mg/kg
CC(C)(C)c1cc(/C=C2\SC(=NO)NC2=O)cc(C(C)(C)C)c1O [Example 4, 5-[[3,5-bis(1,1-dimethylethyl)-4-hydroxyphenyl]methylene]-2,4-thiazolidinedione, 2-oxime (Z)-] |  |  | 32% | 100% | 81% | 17% | 
5-[[3,5-Bis(1,1-dimethylethyl)-4-hydroxylphenyl]methylene]-2-[[2-(dimethylamino)ethyl]amino-4(5H-thiazolone, (Z)- [Example 10] |  |  |  |  | 87% |  | 
CC(C)(C)c1cc(/C=C2\SC(=NNC(N)=S)NC2=O)cc(C(C)(C)C)c1O [Example 7, 2-[5-[[3,5-Bis(1,1-dimethylethyl)-4-hydroxyphenyl]methylene]-4-oxo-2-thiazolidinylidene]hydrazine-carbothiamide, (Z)-] | 390 nM | 4550 nM |  |  |  |  | 
CC(C)(C)c1cc(/C=C2\SC(N)=NC2=O)cc(C(C)(C)C)c1O [Example 1B, 5-[[3,5-Bis(1,1-dimethylethyl)-4-hydroxyphenyl]methylene]-2-imino-4-thiazolidinone, (Z)-, methanesulfonate (1:1) salt] |  |  |  | 100% | 80% |  | ED40 [2]: < 10 mg/kg; Gastric Ulcerogenicity UD50 (gastric ulcers in rats): N
CC(C)(C)c1cc(C=C2SC(NC#N)=NC2=O)cc(C(C)(C)C)c1O [Example 9, [5-[[3,5-Bis(1,1-dimethylethyl)-4,hydroxyphenyl]methylene]-4,5-dihydro-4-oxo-2-thiazolyl]cyanamide] |  | 160 nM |  |  |  | 49% | MFE % inhibition of swelling ([2]; @ 3): 32%
CSC1=NC(=O)/C(=C/c2cc(C(C)(C)C)c(O)c(C(C)(C)C)c2)S1 [Example 5, 5-[[3,5-Bis(1,1-dimethylethyl)-4-hydroxyphenyl]methylene]-2,(methylthio)-4(5H)-thiazolone, (Z)-] | 500 nM and 800 nM | < 600 nM | 36% |  |  | 47% | MFE % inhibition of swelling ([2]; @ 2): 27%; MFE % inhibition of swelling ([2]; @ 50): 23%
CC(NC1=NC(=O)C(=Cc2cc(C(C)(C)C)c(O)c(C(C)(C)C)c2)S1)C(=O)O (centres unmarked) [Example 12] |  |  |  | 100% | 55% |  | 
